Measured values taken from patent US9034918B2, “Composition including at least one trans-cinnamaldehyde and the use thereof in the treatment of bacterial infections, specifically in the treatment of nosocomial infections” (SEPTEOS, priority 2009, dated 2015).

Tests used:
Assay in all cases: Antibiogram by diffusion technique (CA-SFM 2008)
Assay type in all cases: cell-based
E. coli strain 9003 = system: E. coli strain 9003
Excerpt: (§1) Three clinical categories were selected for interpretation of the in vitro sensitivity tests: sensitive (S), resistant (R) and intermediate (I). • The strains categorized S are those for which the probability of therapeutic success is high in the case of treatment by systemic route with the dosing schedule recommended in the summary of product characteristics (SPC) prepared by the French Health Products Safety Agency (AFSSAPS). • The strains categorized R are those for which there is a high probability of therapeutic failure regardless of treatment type and antibiotic dose. • The strains categorized I are those for which therapeutic success cannot be predicted. These strains form a heterogeneous group for which the results obtained in vitro are not predictive of therapeutic success. […] The intermediate category is also a buffer zone which takes into account technical and biological uncertainties.
(§2) The sensitivity of strains to antibiotics was determined by a diffusion technique according to the 2008 recommendations by the Antibiogram Committee of the French Microbiology Society (CA-SFM).
(§3) In terms of critical concentrations and diameters, strains are categorized as follows: • sensitive (S): strains for which the MIC of the antibiotic tested is less than or equal to the lower critical concentration c, which is equivalent to a diameter greater than or equal to the critical diameter D; • resistant (R): strains for which the MIC of the antibiotic tested are greater than the upper critical concentration C, corresponding to a diameter less than the critical diameter d; • intermediate sensitivity (I): strains for which the MIC of the antibiotic tested and the corresponding diameter are between the two critical concentrations and the two critical diameters.
(§4) The tests were carried out on Mueller-Hinton agar. An inoculum adjusted to 0.5 on the McFarland scale is then diluted to 1/100. Petri dishes are inoculated by swabbing. The dishes are read after 24 hours of incubation at 37° C.
(§5) The raw results are then interpreted according to the interpretative reading rules of the CA-SFM.

[1] = system: strain 9007, Pseudomonas aeruginosa, with VIM-2 carbapenemase
Excerpt: as §1, §2, §3, §4, §5

[2] = system: strain 9010, Acinetobacter baumannii, with VEB-1 ESBL
Excerpt: as §1, §2, §3, §4, §5

[3] = system: Enterobacter aerogenes (9004); settings: strain 9004
Excerpt: as §1, §2, §3, §4, §5

E. coli ATCC 25922 = system: E. coli ATCC 25922; parameters: Diameter (D): unit not given here
Excerpt: Three clinical categories were selected for interpretation of the in vitro sensitivity tests: sensitive (S), resistant (R) and intermediate (I). • The strains categorized S are those for which the probability of therapeutic success is high in the case of treatment by systemic route with the dosing schedule recommended in the summary of product characteristics (SPC) prepared by the French Health Products Safety Agency ([…]). • The strains categorized R are those for which there is a high probability of therapeutic failure regardless of treatment type and antibiotic dose. • The strains categorized I are those for which therapeutic success cannot be predicted. These strains form a heterogeneous group for which the results obtained in vitro are not predictive of therapeutic success. […] The intermediate category is also a buffer zone which takes into account technical and biological uncertainties. The sensitivity of strains to antibiotics was determined by a diffusion technique according to the 2008 recommendations by the Antibiogram Committee of the French Microbiology Society (CA-SFM). In terms of critical concentrations and diameters, strains are categorized as follows: • sensitive (S): strains for which the MIC of the antibiotic tested is less than or equal to the lower critical concentration c, which is equivalent to a diameter greater than or equal to the critical diameter D; • resistant (R): strains for which the MIC of the antibiotic tested are greater than the upper critical concentration C, corresponding to a diameter less than the critical diameter d; • intermediate sensitivity (I): strains for which the MIC of the antibiotic tested and the corresponding diameter are between the two critical concentrations and the two critical diameters. The tests were carried out on Mueller-Hinton agar. An inoculum adjusted to 0.5 on the McFarland scale is then diluted to 1/100. Petri dishes are inoculated by swabbing. The dishes are read after 24 hours of incubation at 37° C. The raw results are then interpreted according to the interpretative reading rules of the CA-SFM. Two examples: all strains of methicillin-resistant Staphylococcus are resistant to all beta-lactams, and the same is true for gentamicin-resistant strains; golden staph is necessarily resistant to kanamycin (and amikacin) and tobramycin. The quality of the diffusion method is controlled using E. coli strain ATCC 25922.

Enterococcus strain 8153 = system: Enterococcus strain 8153; parameters: Diameter: unit not given here
Excerpt: as §1, §2, §3, §4, §5

Enterococcus strain 8152 = system: Enterococcus strain 8152; parameters: Diameter: unit not given here
Excerpt: as §1, §2, §3, §4, §5

[4] = system: golden staph (S. aureus) strain 8239; parameters: D: unit not given here
Excerpt: as §1, §2, §3, §4, §5

[5] = system: golden staph (S. aureus) strain 8147; parameters: D: unit not given here
Excerpt: as §1, §2, §3, §4, §5

E. coli strain 8156 = system: E. coli strain 8156; parameters: D: unit not given here
Excerpt: as §1, §2, §3, §4, §5

[6] = system: Pseudomonas aeruginosa strain 8128; parameters: D: unit not given here
Excerpt: as §1, §2, §3, §4, §5

E. coli strain 8155 = system: E. coli strain 8155; parameters: D: unit not given here
Excerpt: as §1, §2, §3, §4, §5

[7] = system: golden staph (S. aureus) strain 8240; parameters: D: unit not given here
Excerpt: as §1, §2, §3, §4, §5

[8] = system: Pseudomonas aeruginosa strain 8134; parameters: D: unit not given here
Excerpt: as §1, §2, §3, §4, §5

[9] = system: Pseudomonas aeruginosa strain 8132; parameters: D: unit not given here
Excerpt: as §1, §2, §3, §4, §5

E. coli strain 8157 = system: E. coli strain 8157; parameters: D: unit not given here
Excerpt: as §1, §2, §3, §4, §5

[10] = system: Pseudomonas aeruginosa strain 8129; parameters: D: unit not given here
Excerpt: as §1, §2, §3, §4, §5

E. coli strain 8154 = system: E. coli strain 8154; parameters: D: unit not given here
Excerpt: as §1, §2, §3, §4, §5

[11] = system: Enterococcus faecium (9001); settings: strain 9001
Excerpt: as §1, §2, §3, §4, §5

Compound | Category [1] | Category [2] | Category (Cat.) (E. coli ATCC 25922) | Diameter (D) (E. coli ATCC 25922) | Category (Enterococcus strain 8153) | Diameter (Enterococcus strain 8153) | Category (Enterococcus strain 8152) | Diameter (Enterococcus strain 8152) | Cat. [4] | D [4] | Cat. [5] | D [5] | Cat. (E. coli strain 8156) | D (E. coli strain 8156) | Cat. [6] | D [6] | Cat. (E. coli strain 8155) | Cat. [7] | D [7] | Category [11] | also measured
CC1(C)S[C@@H]2[C@H](NC(=O)[C@H](N)c3ccc(O)cc3)C(=O)N2[C@H]1C(=O)O [Amoxicillin] | R | R | S | 23 | S | 33 | S | 32 | R | 12 | R | 26 | S | 25 | R | 0 | S | R | 17 |  | Category (E. coli strain 9003): R; Category [3]: R; D (E. coli strain 8155): 24; Cat. [8]: R; D [8]: 0; Cat. [9]: R; D [9]: 0; Cat. (E. coli strain 8157): R; D (E. coli strain 8157): 0; Cat. [10]: R; D [10]: 0; Cat. (E. coli strain 8154): R; D (E. coli strain 8154): 0
CC1(C)S[C@@H]2[C@H](NC(=O)[C@H](N)c3ccccc3)C(=O)N2[C@H]1C(=O)O [Ampi] |  |  |  |  |  |  |  |  |  |  |  |  |  |  |  |  |  |  |  | R | 
O=C(N[C@H](CO)[C@H](O)c1ccc([N+](=O)[O-])cc1)C(Cl)Cl [Chloram] |  |  |  |  |  |  |  |  |  |  |  |  |  |  |  |  |  |  |  | S | 
CCC[C@@H]1C[C@@H](C(=O)N[C@@H]([C@H]2O[C@H](SC)[C@H](O)[C@@H](O)[C@H]2O)[C@H](C)Cl)N(C)C1 [Clindamycin] |  |  |  |  | R | 0 | R | 0 | S | 31 | S | 29 |  |  |  |  |  | S | 30 | R | 
CC[C@H]1OC(=O)[C@H](C)[C@@H](O[C@H]2C[C@@](C)(OC)[C@@H](O)[C@H](C)O2)[C@H](C)[C@@H](O[C@@H]2O[C@H](C)C[C@H](N(C)C)[C@H]2O)[C@](C)(O)C[C@@H](C)C(=O)[C@H](C)[C@@H](O)[C@]1(C)O [Erythro] |  |  |  |  |  |  |  |  |  |  |  |  |  |  |  |  |  |  |  | R | 
NC[C@H]1O[C@H](O[C@H]2[C@H](O)[C@@H](O[C@H]3O[C@H](CO)[C@@H](O)[C@H](N)[C@H]3O)[C@H](N)C[C@@H]2N)[C@H](O)[C@@H](O)[C@@H]1O [Kanamycin] | R | R | S | 22 | R | 14 | R | 10 | S | 26 | S | 22 | S | 27 | R | 9 | S | R | 12 | R | D (E. coli strain 8155): 23; Cat. [8]: R; D [8]: 14; Cat. [9]: R; D [9]: 0; Cat. (E. coli strain 8157): S; D (E. coli strain 8157): 24; Cat. [10]: R; D [10]: 10; Cat. (E. coli strain 8154): S; D (E. coli strain 8154): 24
CC(=O)NC[C@H]1CN(c2ccc(N3CCOCC3)c(F)c2)C(=O)O1 [Linezolid] |  |  |  |  |  |  |  |  |  |  |  |  |  |  |  |  |  |  |  | S | 
COc1c(N2C[C@@H]3CCCN[C@@H]3C2)c(F)cc2c(=O)c(C(=O)O)cn(C3CC3)c12 [Moxiflo] |  |  |  |  |  |  |  |  |  |  |  |  |  |  |  |  |  |  |  | R | 
CN[C@@H]1[C@H](O[C@H]2[C@H](O[C@H]3[C@H](O)[C@@H](O)[C@H](N=C(N)N)[C@@H](O)[C@@H]3N=C(N)N)O[C@@H](C)[C@]2(O)C=O)O[C@@H](CO)[C@H](O)[C@H]1O [Strepto HC] |  |  |  |  |  |  |  |  |  |  |  |  |  |  |  |  |  |  |  | R | 
CN(C)[C@@H]1C(O)=C(C(N)=O)C(=O)[C@@]2(O)C(O)=C3C(=O)c4c(O)cccc4[C@@](C)(O)[C@H]3C[C@@H]12 [Tetra] |  |  |  |  |  |  |  |  |  |  |  |  |  |  |  |  |  |  |  | S | 
NC[C@H]1O[C@H](O[C@H]2[C@H](O)[C@@H](O[C@H]3O[C@H](CO)[C@@H](O)[C@H](N)[C@H]3O)[C@H](N)C[C@@H]2N)[C@H](N)C[C@@H]1O [Tobramycin] | S | R | S | 24 | R | 14 | R | 11 | S | 31 | S | 30 | S | 22 | S | 30 | S | R | 0 |  | Category (E. coli strain 9003): S; Category [3]: R; D (E. coli strain 8155): 24; Cat. [8]: R; D [8]: 11; Cat. [9]: R; D [9]: 0; Cat. (E. coli strain 8157): S; D (E. coli strain 8157): 24; Cat. [10]: S; D [10]: 27; Cat. (E. coli strain 8154): S; D (E. coli strain 8154): 24
CN[C@H](CC(C)C)C(=O)N[C@H]1C(=O)N[C@@H](CC(N)=O)C(=O)N[C@H]2C(=O)N[C@H]3C(=O)N[C@H](C(=O)N[C@H](C(=O)O)c4cc(O)cc(O)c4-c4cc3ccc4O)[C@H](O)c3ccc(c(Cl)c3)Oc3cc2cc(c3O[C@@H]2O[C@H](CO)[C@@H](O)[C@H](O)[C@H]2O[C@H]2C[C@](C)(N)[C@H](O)[C@H](C)O2)Oc2ccc(cc2Cl)[C@H]1O [Vanco] |  |  |  |  |  |  |  |  |  |  |  |  |  |  |  |  |  |  |  | R | 
Amoxicillin + clavulanic acid | R | R | S | 22 | S | 32 | S | 30 | R | 27 | R | 25 | S | 22 | R | 0 | S | R | 25 |  | Category (E. coli strain 9003): S; Category [3]: R; D (E. coli strain 8155): 24; Cat. [8]: R; D [8]: 0; Cat. [9]: R; D [9]: 0; Cat. (E. coli strain 8157): S; D (E. coli strain 8157): 30; Cat. [10]: R; D [10]: 0; Cat. (E. coli strain 8154): S; D (E. coli strain 8154): 14
